Assay results from PMC5458052 (Nature Communications, 2017).
Values joined by “and” are separate entries in the source; they are usually repeats but may differ in a detail not shown here. Equal entries are not always repeated. “Also recorded” adds a separate entry of the source. Where two headings read alike, the source gives them in different places.

Assays:
P. falciparum 3D7 = assay: In vitro antimalarial activity, drug sensitivity testing (3D7); type: cell-based; conditions: Plasmodium falciparum
P. berghei [1] = tested on: P. berghei; set-up: species or system Plasmodium berghei
[2] = tested on: P. falciparum strains (sensitive and resistant); assay: microbe, parasite or virus in culture; type: cell-based; conditions: Plasmodium falciparum
[3] = Mammalian cell cytotoxicity; type: cell-based; conditions: human; HeLa cells, n=3; read-out: cytotoxicity median IC50
[4] = tested on: P. vivax clinical field isolates; assay: microbe, parasite or virus in culture; type: cell-based; conditions: Plasmodium vivax, read-out: Median IC50
[5] = tested on: P. falciparum lab lines FC27 and K1; assay: microbe, parasite or virus in culture; type: cell-based; conditions: Plasmodium falciparum, median of 3 independent experiments
[6] = tested on: Late stage gametocytes; oocysts in Anopheles stephensi mosquitoes; assay: whole plant or invertebrate; type: cell-based
[7] = tested on: P. falciparum strain 3D7A; assay: In vitro parasite reduction ratio (PRR) assay; type: cell-based, Plasmodium falciparum
[8] = tested on: P. falciparum K13 wild-type and mutant lines (Cam3.II, V1/S); assay: microbe, parasite or virus in culture; type: cell-based, Plasmodium falciparum; conditions: read-out: IC50 Mean
[9] = tested on: P. falciparum strain 3D7^0087/N9; assay: Humanized SCID mouse model of P. falciparum; type: in vivo, Plasmodium falciparum
[10] = Metabolic stability and metabolite profile in rat liver microsomes; type: in vitro ADME
[11] = Metabolic stability and metabolite profile in mouse liver microsomes; type: in vitro ADME
[12] = Metabolic stability in dog liver microsomes; type: in vitro ADME; conditions: substrate 1 µM
Sigma 2 receptors = target: T1, Sigma 2 receptors (Homo sapiens, UniProt Q5BJF2); assay: CEREP radioligand binding screen, Sigma 2
T1 construct: CEREP

Cav1.2 channel = Cav1.2 channel (Homo sapiens, UniProt Q13936); assay: Cav1.2 electrophysiology assay (IonWorks HT, CHO cells); type: cell-based; conditions: at >100 μM
Nav1.5 channel = Nav1.5 channel (Homo sapiens, UniProt Q14524); assay: Nav1.5 electrophysiology assay (IonWorks HT, CHO cells); type: cell-based; conditions: at >100 μM
Mouse micronucleus test = conditions: in vivo
CYP2C19 = CYP2C19 (Homo sapiens, UniProt P33261); assay: Cytochrome P450 inhibition CYP2C19; type: in vitro ADME
CYP2D6 = CYP2D6 (Homo sapiens, UniProt P10635); assay: Cytochrome P450 inhibition CYP2D6; type: in vitro ADME
[13] = Single rising oral dose MTD study in rats; conditions: both sexes, Sprague-Dawley, rat, in vivo; single oral administration; read-out: maximum-tolerated dose (MTD)
[14] = In vitro intrinsic clearance, human liver microsomes (Chem Partners); type: in vitro ADME; conditions: human (H) liver microsomes
[15] = rat, in vivo
in vivo [16] = conditions: Sprague-Dawley, rat; for AUC(0-t) / Cmax: po
in vivo [17] = conditions: rat, iv, 1 mg/kg
in vitro = conditions: human, microsomes
CYP3A4 = CYP3A4 (Homo sapiens, UniProt P08684); assay: biochemical
[18] = Rat blood stability in vitro; conditions: male, Sprague Dawley, freshly collected whole blood
[19] = Rat PK, compartmental analysis
[20] = Dog PK, compartmental analysis
[21] = Mouse PK, compartmental analysis
[22] = Rat PK iv 1 mg/kg (Chem Partners); conditions: in vivo
P. berghei [23] = assay: Peters' standard 4-day suppressive test
[24] = Metabolic stability and metabolite profile in human liver microsomes; conditions: for Microsome-Predicted EH: human liver microsomes

Chain of Cav1.2 channel (Q13936 whole entry): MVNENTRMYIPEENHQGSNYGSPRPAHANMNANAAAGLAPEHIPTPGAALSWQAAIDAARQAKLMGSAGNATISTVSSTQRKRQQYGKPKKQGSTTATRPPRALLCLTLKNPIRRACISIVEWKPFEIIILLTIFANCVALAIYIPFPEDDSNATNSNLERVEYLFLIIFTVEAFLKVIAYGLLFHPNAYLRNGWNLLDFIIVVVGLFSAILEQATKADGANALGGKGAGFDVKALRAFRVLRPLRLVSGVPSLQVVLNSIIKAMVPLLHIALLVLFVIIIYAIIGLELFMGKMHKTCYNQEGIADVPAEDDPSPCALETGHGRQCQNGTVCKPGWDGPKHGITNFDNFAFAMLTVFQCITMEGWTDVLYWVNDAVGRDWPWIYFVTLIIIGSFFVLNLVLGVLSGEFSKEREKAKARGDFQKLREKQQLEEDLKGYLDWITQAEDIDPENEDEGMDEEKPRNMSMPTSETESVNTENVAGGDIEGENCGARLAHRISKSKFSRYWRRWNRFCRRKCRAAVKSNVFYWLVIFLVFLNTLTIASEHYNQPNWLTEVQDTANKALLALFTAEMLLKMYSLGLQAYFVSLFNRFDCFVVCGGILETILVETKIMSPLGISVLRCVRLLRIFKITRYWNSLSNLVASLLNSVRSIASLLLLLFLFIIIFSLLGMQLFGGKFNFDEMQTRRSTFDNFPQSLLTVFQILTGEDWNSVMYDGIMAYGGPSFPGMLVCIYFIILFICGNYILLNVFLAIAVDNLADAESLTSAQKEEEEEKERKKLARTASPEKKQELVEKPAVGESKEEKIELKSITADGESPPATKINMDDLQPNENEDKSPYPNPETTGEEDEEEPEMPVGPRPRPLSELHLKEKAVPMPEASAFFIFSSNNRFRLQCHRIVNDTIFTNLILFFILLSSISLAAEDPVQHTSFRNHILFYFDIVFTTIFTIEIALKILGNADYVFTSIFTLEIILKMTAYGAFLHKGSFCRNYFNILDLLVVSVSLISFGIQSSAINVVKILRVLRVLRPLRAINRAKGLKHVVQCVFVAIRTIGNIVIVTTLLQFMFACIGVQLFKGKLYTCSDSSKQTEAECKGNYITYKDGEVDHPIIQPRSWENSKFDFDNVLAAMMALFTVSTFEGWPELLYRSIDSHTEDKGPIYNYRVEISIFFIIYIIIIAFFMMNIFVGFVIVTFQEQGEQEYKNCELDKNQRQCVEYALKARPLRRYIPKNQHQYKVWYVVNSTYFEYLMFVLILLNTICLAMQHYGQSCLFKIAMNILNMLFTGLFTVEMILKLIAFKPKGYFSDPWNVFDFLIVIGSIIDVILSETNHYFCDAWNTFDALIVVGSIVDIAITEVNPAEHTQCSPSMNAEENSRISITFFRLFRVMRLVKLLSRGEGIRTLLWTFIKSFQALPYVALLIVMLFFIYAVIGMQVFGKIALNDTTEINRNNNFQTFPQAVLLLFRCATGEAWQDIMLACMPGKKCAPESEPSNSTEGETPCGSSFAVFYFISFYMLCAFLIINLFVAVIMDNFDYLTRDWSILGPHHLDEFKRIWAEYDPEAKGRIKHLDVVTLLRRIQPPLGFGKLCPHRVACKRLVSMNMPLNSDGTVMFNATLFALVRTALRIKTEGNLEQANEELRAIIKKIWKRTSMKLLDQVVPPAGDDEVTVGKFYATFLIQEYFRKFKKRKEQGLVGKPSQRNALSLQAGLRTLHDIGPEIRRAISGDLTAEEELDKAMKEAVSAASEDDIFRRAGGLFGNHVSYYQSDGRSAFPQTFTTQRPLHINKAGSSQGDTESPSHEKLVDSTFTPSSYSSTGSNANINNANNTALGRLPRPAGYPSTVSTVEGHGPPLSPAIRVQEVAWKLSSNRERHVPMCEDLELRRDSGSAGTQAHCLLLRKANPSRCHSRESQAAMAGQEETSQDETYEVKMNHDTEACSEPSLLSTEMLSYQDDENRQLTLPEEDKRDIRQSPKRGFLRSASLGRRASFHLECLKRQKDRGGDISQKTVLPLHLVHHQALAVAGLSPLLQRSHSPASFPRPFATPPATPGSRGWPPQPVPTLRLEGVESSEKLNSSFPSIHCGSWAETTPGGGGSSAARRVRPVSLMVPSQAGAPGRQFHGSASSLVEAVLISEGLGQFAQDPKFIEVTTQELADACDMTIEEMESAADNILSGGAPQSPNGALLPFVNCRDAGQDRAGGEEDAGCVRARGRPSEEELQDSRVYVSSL
Chain of Cav1.2 channel (Q08289 whole entry partner): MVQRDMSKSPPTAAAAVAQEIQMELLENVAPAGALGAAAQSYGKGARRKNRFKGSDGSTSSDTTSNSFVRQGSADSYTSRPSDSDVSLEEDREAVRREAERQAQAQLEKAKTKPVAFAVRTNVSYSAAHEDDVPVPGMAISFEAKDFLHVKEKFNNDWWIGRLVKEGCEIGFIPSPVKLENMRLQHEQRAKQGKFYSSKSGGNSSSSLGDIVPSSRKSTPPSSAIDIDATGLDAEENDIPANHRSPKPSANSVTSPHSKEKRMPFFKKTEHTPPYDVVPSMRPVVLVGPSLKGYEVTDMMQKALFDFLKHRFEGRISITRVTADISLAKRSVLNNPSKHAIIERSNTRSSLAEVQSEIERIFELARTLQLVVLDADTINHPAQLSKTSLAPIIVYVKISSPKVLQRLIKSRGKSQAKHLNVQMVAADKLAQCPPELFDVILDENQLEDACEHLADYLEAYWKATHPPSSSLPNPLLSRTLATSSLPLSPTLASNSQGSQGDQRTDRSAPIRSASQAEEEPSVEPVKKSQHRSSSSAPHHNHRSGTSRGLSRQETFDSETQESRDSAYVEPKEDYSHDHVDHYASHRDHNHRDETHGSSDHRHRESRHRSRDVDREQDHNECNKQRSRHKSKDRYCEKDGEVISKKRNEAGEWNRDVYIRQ
Chain of Cav1.2 channel (P54289 25-946 partner limits assumed): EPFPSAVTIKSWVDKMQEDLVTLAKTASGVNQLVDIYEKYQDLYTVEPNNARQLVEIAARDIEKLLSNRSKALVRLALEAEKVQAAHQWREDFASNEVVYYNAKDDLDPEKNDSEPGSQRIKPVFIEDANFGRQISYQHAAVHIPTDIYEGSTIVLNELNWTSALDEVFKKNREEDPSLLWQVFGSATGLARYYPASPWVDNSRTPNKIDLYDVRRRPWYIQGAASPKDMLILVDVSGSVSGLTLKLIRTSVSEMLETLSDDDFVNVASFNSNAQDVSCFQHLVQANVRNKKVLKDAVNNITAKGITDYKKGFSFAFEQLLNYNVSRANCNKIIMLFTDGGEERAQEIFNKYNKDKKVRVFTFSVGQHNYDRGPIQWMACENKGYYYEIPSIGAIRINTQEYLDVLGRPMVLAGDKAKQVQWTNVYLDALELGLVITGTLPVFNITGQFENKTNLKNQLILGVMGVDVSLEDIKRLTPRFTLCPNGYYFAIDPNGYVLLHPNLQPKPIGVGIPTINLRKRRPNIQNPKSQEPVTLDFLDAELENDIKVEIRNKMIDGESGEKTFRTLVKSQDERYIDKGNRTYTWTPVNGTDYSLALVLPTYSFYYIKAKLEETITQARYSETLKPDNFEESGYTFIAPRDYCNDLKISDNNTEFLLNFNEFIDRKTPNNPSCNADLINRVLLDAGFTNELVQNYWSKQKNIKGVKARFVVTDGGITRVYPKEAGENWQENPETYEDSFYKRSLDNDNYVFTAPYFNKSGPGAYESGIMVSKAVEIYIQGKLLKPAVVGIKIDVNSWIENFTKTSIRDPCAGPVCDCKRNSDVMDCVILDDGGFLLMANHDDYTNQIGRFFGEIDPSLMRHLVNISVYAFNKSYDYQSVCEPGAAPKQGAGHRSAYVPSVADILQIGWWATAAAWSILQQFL
Chain of Cav1.2 channel (P54289 947-1103 partner limits assumed): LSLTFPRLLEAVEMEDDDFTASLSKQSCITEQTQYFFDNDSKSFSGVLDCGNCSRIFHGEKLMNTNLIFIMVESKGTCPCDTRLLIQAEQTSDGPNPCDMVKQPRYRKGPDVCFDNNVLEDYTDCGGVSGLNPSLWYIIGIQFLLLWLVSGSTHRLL
Chain of CYP2D6 (P10635 whole entry): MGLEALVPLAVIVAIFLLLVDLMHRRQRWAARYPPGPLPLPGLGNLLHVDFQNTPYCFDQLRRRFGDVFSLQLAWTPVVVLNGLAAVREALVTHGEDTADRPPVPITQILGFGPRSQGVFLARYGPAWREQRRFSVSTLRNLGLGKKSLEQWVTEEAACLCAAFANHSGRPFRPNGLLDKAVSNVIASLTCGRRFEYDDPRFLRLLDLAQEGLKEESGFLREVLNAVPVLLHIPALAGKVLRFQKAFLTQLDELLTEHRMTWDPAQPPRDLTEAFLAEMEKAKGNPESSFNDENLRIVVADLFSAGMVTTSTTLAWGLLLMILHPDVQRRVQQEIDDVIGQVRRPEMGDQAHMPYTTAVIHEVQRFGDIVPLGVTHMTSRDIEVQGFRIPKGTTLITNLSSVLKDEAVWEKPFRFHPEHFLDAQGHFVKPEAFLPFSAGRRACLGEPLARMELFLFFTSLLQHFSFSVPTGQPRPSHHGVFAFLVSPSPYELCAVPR
Chain of CYP3A4 (P08684 whole entry): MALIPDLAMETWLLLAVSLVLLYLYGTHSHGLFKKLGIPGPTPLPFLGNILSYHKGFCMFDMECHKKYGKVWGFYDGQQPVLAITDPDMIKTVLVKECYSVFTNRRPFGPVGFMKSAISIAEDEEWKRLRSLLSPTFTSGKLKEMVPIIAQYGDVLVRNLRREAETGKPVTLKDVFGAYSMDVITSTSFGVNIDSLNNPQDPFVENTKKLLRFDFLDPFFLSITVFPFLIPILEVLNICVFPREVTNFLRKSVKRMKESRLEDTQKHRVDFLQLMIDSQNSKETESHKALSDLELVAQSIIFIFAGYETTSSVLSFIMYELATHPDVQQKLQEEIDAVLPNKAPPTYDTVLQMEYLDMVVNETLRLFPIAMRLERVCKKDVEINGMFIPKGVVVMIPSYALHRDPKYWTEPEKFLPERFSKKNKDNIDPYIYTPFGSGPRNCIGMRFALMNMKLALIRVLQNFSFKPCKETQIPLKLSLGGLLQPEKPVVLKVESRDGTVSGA

## FC1CCN(CCOc2ccc(C3CCC4(CC3)OOC3(OO4)C4CC5CC(C4)CC3C5)cc2)CC1 (stereo not shown) [Compound E209]
P. falciparum 3D7
  IC50: 5.1 ± 0.81 nM
P. berghei [1]
  In vivo (Pb) MSD (days) at 1 x 30 mg/kg: 26.3 days and 25.0 (15, 30, 30) (2 cures) days
P. berghei [1]; in vivo
  cure rate: 66%
[2]; DD2, strain Dd2 (chloroquine resistant), mean ± SD n=3
  IC50: 7.7 ± 1.5 nM
[2]; HB3, strain HB3 (chloroquine sensitive), mean ± SD n=3
  IC50: 4.2 ± 0.8 nM
[2]; NF54, strain NF54 (chloroquine sensitive), mean ± SD n=3
  IC50: 5.2 ± 1 nM
[2]; TM90C2B, strain TM90C2B (chloroquine resistant), mean ± SD n=3
  IC50: 7.3 ± 1.4 nM
[2]; read-out: mean IC50 range, panel of 10 sensitive and multidrug-resistant P. falciparum isolates
  IC50: 2.9 to 14 nM
[2]; strain 7G8 (chloroquine resistant), mean ± SD n=3
  IC50: 2.9 ± 0.6 nM
[2]; strain D6 (chloroquine sensitive), mean ± SD n=3
  IC50: 8.5 ± 1.6 nM
[2]; strain FCB (chloroquine resistant), mean ± SD n=3
  IC50: 14 ± 2.7 nM
[2]; strain K1 (chloroquine resistant), mean ± SD n=3
  IC50: 4.2 ± 0.8 nM
[2]; strain V1/S (chloroquine resistant), mean ± SD n=3
  IC50: 4.2 ± 0.8 nM
[3]
  IC50: 2850 nM
[4]
  IC50: 10.5 nM
[5]; K1, FC27 (CQ S) lab line
  IC50: 20.7 nM
[5]; K1, K1 (CQ R) lab line
  IC50: 31.8 nM
[6]
  transmission-blocking activity (percentage of mosquitoes with no observed oocysts): ~60% and 90%
[6]; Anopheles stephensi, read-out: IC50 (reduction in oocyst mean intensity)
  IC50: 14.5 nM
[7]; 10 × IC50
  Lag phase: 0 h
  Log PRR: > 4.8
  Slope: −0.098
[7]; 10 × IC50, parasite clearance time
  PCT 99.9 %: < 24 h
[8]; Plasmodium falciparum, 72 h
  IC50: 8.71 nM
[8]
  IC50: 7.6 nM and 7.51 nM and 8.46 nM and 7.76 nM and 7.81 nM
[9]; single oral dose
  AUC ED90: 1.2 µg·h/mL
[9]; single oral dose 30 mg kg^−1
  parasite clearance: Complete parasite clearance; also recorded: maximum parasite clearance
[9]; single oral dose, calculated
  ED90: 11.6 mg/kg
[10]; rat liver microsomes with NADPH, 60 minutes
  % Substrate Consumed: 54%
[10]; rat liver microsomes, substrate 1 µM
  Microsome-Predicted EH: 0.48
[10]; rat liver microsomes, substrate 1 µM, read-out: Degradation half-life
  half-life at 1 µM: 0.8 h
[10]; rat liver microsomes, substrate 1 µM, read-out: In vitro CLint
  microsomal CLint at 1 µM: 36 µL/min/mg
[10]; rat liver microsomes, substrate 5 µM
  Microsome-Predicted EH: 0.45
[10]; rat liver microsomes, substrate 5 µM, read-out: Degradation half-life
  half-life at 5 µM: 0.9 h
[10]; rat liver microsomes, substrate 5 µM, read-out: In vitro CLint
  microsomal CLint at 5 µM: 32 µL/min/mg
[11]; mouse liver microsomes with NADPH, 60 minutes
  % Substrate Consumed: 44%
[11]; mouse liver microsomes, substrate 1 µM
  Microsome-Predicted EH: 0.22
[11]; mouse liver microsomes, substrate 1 µM, read-out: Degradation half-life
  half-life at 1 µM: 2.2 h
[11]; mouse liver microsomes, substrate 1 µM, read-out: In vitro CLint
  microsomal CLint at 1 µM: 13 µL/min/mg
[11]; mouse liver microsomes, substrate 5 µM
  Microsome-Predicted EH: 0.25
[11]; mouse liver microsomes, substrate 5 µM, read-out: Degradation half-life
  half-life at 5 µM: 2.48 h
[11]; mouse liver microsomes, substrate 5 µM, read-out: In vitro CLint
  microsomal CLint at 5 µM: 17 µL/min/mg
[12]; n=1
  Microsome-Predicted EH: 0.38
[12]; n=1, read-out: Degradation half-life
  half-life at 1 µM: 2.88 h
[12]; n=1, read-out: In vitro CLint
  microsomal CLint at 1 µM: 10 µL/min/mg
Sigma 2 receptors
  IC50: ~200 nM
Cav1.2 channel
  inhibitory activity: no inhibitory activity
Nav1.5 channel
  inhibitory activity: no inhibitory activity
Mouse micronucleus test
  mouse micronucleus test result: negative
CYP2C19
  IC50: > 20000 nM
CYP2D6
  IC50: > 20000 nM
[13]
  MTD: 300 mg/kg
[14]
  CLint scaled: 3.48 L/h/kg
[15]
  finding at 100 mg kg^−1: body weight loss
  tolerability: not tolerated
In vivo [16]; female
  NOAEL: 50 mg/kg/day
In vivo [16]; female, 50 mg/kg
  AUC(0-t): 14.8 µg·h/mL
  Cmax: 1.07 µg/mL
In vivo [16]; male
  NOAEL: 100 mg/kg/day
In vivo [16]; male, 100 mg/kg
  AUC(0-t): 19.6 µg·h/mL
  Cmax: 1.2 µg/mL
In vivo [17]
  half-life: 4 h
In vitro
  microsomal CLint: 23 µL/min/mg
CYP3A4
  IC50: > 20000 nM
[18]
  half-life at 1 µM: 13 h
[19]; PO 9 mg kg^−1
  Absorption rate constant Ka: 0.31 h⁻¹
[19]; male, Sprague-Dawley, plasma, other: intravenous and oral, fitted together
  clearance: 1.6 L/h/kg
[20]; PO 5 mg kg^−1
  Absorption rate constant Ka: 0.33 h⁻¹
[20]; male, Beagle, plasma, oral, 5 mg kg^−1
  bioavailability: 40%
[20]; male, Beagle, plasma, other: intravenous and oral, fitted together
  clearance: 1.1 L/h/kg
[21]; PO 10 mg kg^−1
  Absorption rate constant Ka: 0.79 h⁻¹
[21]; female, Swiss Outbred, plasma, oral, 10 mg kg^−1
  bioavailability: 82%
[21]; female, Swiss Outbred, plasma, other: intravenous and oral, fitted together
  clearance: 4.3 L/h/kg
[22]
  clearance: 0.306 L/h/kg
P. berghei [23]; given orally, 4-day suppressive test
  parasite clearance: complete parasite clearance
P. berghei [23]; oral, after three doses, P. berghei infected mice
  estimated ED50: 4 mg/kg
[24]; human liver microsomes with NADPH, 60 minutes
  % Substrate Consumed: 45%
[24]; substrate 1 µM
  Microsome-Predicted EH: 0.50
[24]; substrate 5 µM
  Microsome-Predicted EH: 0.48
[24]; human, liver microsomes
  half-life at 1 µM: 1.13 h
  half-life at 5 µM: 1.27 h
  microsomal CLint at 1 µM: 25 µL/min/mg
